What is called EC50 is the concentration that produces a half-maximal response.

SMILES strings stand for the structures.

This is an account of results in patent US11571423B2, “Small molecule modulators of human sting” (Curadev Pharma Limited, priority 2017, dated 2023).

In one experiment the target is hSTING(R232) (Homo sapiens, UniProt Q86WV6, H232R). As to the kind of experiment: Luciferase reporter assay in HEK293T-hSTING-Luciferase cells, R232 (wild type) human STING. In kind it is cell-based. To be noted: 20 hr stimulation, read-out: R232 human activity (EC50 range). In a few lines: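 After 20 hr compound stimulation of 5×10^5 cells, secreted luciferase in the supernatant was measured by luminescence; values are fold-induction over baseline and EC50. The line is a clonal HEK293T stably carrying a STING plasmid (pUNO-1) and a luciferase reporter under five tandem ISREs fused to an ISG54 promoter.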
(In general: A reporter such as luciferase makes a cellular process visible.)

In experiment [1] the target is cynomolgus monkey STING protein (Macaca fascicularis, UniProt A0A2R3XZA6). As to the kind of experiment: Luciferase reporter assay, cynomolgus monkey STING overexpressed in HEK293T cells. The class given is cell-based. The settings on record: cynomolgus monkey STING overexpressed in HEK293T cells; read-out: Cynomolgus monkey STING activity (EC50 range). The procedure:
5×10^5 clonally selected HEK293T-hSTING-Luciferase cells were seeded in 384-well plates in growth medium and stimulated with novel compounds. After 20 hr of stimulation supernatant were removed and secretary reporter gene activity were measured using the Quanti-Luc detection system (Invivogen) on a Spectramax i3X luminometer.
In the tables below, EC50 value ranges for exemplary compounds are given.
Selected compounds were further tested against cynomolgus monkey STING protein overexpressed in HEK293T cells.

Sequence of hSTING(R232) (Q86WV6 whole entry H232R, the tested form may be a part): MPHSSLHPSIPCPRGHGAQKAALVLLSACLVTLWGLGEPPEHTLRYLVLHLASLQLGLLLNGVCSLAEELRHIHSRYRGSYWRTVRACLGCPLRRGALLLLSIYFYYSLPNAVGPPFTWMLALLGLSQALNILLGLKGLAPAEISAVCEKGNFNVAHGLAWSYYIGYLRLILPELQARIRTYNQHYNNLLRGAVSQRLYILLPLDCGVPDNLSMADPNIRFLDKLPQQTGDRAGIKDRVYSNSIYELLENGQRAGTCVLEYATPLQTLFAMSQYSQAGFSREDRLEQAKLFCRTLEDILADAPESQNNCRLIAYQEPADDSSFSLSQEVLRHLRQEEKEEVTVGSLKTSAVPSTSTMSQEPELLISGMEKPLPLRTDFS
Sequence of cynomolgus monkey STING protein (A0A2R3XZA6 entry or part of it): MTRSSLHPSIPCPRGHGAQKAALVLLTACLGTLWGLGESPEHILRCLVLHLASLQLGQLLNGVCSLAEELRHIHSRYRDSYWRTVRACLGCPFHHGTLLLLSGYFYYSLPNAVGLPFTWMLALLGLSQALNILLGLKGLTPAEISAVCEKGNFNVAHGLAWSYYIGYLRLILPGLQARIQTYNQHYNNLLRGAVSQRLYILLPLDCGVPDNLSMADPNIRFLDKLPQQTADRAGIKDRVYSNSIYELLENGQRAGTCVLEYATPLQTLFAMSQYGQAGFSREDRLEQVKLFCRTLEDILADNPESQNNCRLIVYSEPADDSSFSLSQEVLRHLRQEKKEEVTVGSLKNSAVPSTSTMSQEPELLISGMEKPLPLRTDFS

For `Cc1cccc(CN2C(=O)N(C)[C@@H](C)c3ccc(C(=O)NCc4c(F)cc(F)cc4F)cc32)c1F` [Example 168, (S)-1-(2-fluoro-3-methylbenzyl)-3,4-dimethyl-2-oxo-N-(2,4,6-trifluorobenzyl)-1,2,3,4-tetrahydroquinazoline-7-carboxamide], the EC50 (on hSTING(R232); in experiment [1]) was under 1000 nM each time.

Regarding `Cc1ncc(Cl)c(CN2C(=O)N(C)C(C)c3ccc(C(=O)NCc4c(F)cc(F)cc4F)cc32)c1F` (stereo not drawn) [Example 176, 1-((5-chloro-3-fluoro-2-methylpyridin-4-yl)methyl)-3,4-dimethyl-2-oxo-N-(2,4,6-trifluorobenzyl)-1,2,3,4-tetrahydroquinazoline-7-carboxamide], the EC50 (on hSTING(R232); in experiment [1]) was under 1000 nM each time.

Take `COc1ccc(F)c(F)c1CN1C(=O)N(C)C(C)c2ccc(C(=O)NCc3c(F)cc(F)cc3F)cc21` (stereo not drawn) [Example 178, 1-(2,3-difluoro-6-methoxybenzyl)-3,4-dimethyl-2-oxo-N-(2,4,6-trifluorobenzyl)-1,2,3,4-tetrahydroquinazoline-7-carboxamide]: the EC50 (at hSTING(R232); in experiment [1]) was under 1000 nM throughout.

Take `COc1ccc(F)c(CN2C(=O)N(C)[C@@H](C)c3ccc(C(=O)NCc4c(F)cc(F)cc4F)cc32)c1` [Example 183, (S)-1-(2-fluoro-5-methoxybenzyl)-3,4-dimethyl-2-oxo-N-(2,4,6-trifluorobenzyl)-1,2,3,4-tetrahydroquinazoline-7-carboxamide]: the EC50 (on hSTING(R232); in experiment [1]) was under 1000 nM each time.

As for `COc1ncc(Cl)c(CN2C(=O)N(C)[C@@H](C)c3ccc(C(=O)NCc4c(F)cc(F)cc4F)cc32)c1F` [Example 184, (S)-1-((5-chloro-3-fluoro-2-methoxypyridin-4-yl)methyl)-3,4-dimethyl-2-oxo-N-(2,4,6-trifluorobenzyl)-1,2,3,4-tetrahydroquinazoline-7-carboxamide], the EC50 (at hSTING(R232); in experiment [1]) was under 1000 nM throughout.

Take `C[C@H]1c2ccc(C(=O)NCc3c(F)cc(F)cc3F)cc2N(Cc2c(F)cc(OCCOC(=O)CN)cc2F)C(=O)N1C` [Example 187, (S)-2-(4-((3,4-dimethyl-2-oxo-7-((2,4,6-trifluorobenzyl)carbamoyl)-3,4-dihydroquinazolin-1(2H)-yl)methyl)-3,5-difluorophenoxy)ethyl 2-aminoacetate]: the concentration for a half-maximal effect (EC50) (on hSTING(R232); in experiment [1]) was under 1000 nM throughout.

With `CC1c2ccc(C(=O)NCc3c(F)cc(F)cc3F)cc2N(Cc2ccccc2F)C(=O)N1C` (stereo not drawn) [Example 202, 1-(2-fluorobenzyl)-3,4-dimethyl-2-oxo-N-(2,4,6-trifluorobenzyl)-1,2,3,4-tetrahydroquinazoline-7-carboxamide], the EC50 (on hSTING(R232); in experiment [1]) was under 1000 nM each time.

With `CC1c2ccc(C(=O)NCc3c(F)cc(F)cc3F)cc2N(Cc2c(F)cccc2C(F)(F)F)C(=O)N1C` (stereo not drawn) [Example 209, 1-(2-fluoro-6-(trifluoromethyl)benzyl)-3,4-dimethyl-2-oxo-N-(2,4,6-trifluorobenzyl)-1,2,3,4-tetrahydroquinazoline-7-carboxamide], the EC50 (at hSTING(R232); in experiment [1]) was under 1000 nM throughout.

Regarding `CC1c2ccc(C(=O)NCc3c(F)cc(F)cc3F)cc2N(Cc2cc(O)ccc2F)C(=O)N1C` (stereo not drawn) [Example 231, 1-(2-fluoro-5-hydroxybenzyl)-3,4-dimethyl-2-oxo-N-(2,4,6-trifluorobenzyl)-1,2,3,4-tetrahydroquinazoline-7-carboxamide], the EC50 (at hSTING(R232); in experiment [1]) was under 1000 nM in each case.

With `C[C@H]1c2ccc(C(=O)NCc3c(F)cc(F)cc3F)cc2N(Cc2c(OCCO)ccc(F)c2F)C(=O)N1C` [Example 254, (S)-1-(2,3-difluoro-6-(2-hydroxyethoxy)benzyl)-3,4-dimethyl-2-oxo-N-(2,4,6-trifluorobenzyl)-1,2,3,4-tetrahydroquinazoline-7-carboxamide], the half-maximal effective concentration (EC50) on hSTING(R232) is under 1000 nM; in experiment [1], 1000 to 10000 nM.

Consider `C[C@H]1c2ccc(C(=O)NCc3c(F)cc(F)cc3F)cc2N(Cc2c(F)ccc(O)c2F)C(=O)N1C` [Example 255, (S)-1-(2,6-difluoro-3-hydroxybenzyl)-3,4-dimethyl-2-oxo-N-(2,4,6-trifluorobenzyl)-1,2,3,4-tetrahydroquinazoline-7-carboxamide], for which the EC50 (at hSTING(R232); in experiment [1]) was under 1000 nM throughout.

`C[C@H]1c2ccc(C(=O)NCc3c(F)cc(F)cc3F)cc2N(Cc2c(F)ccc(OCCO)c2F)C(=O)N1C` [Example 256, (S)-1-(2,6-difluoro-3-(2-hydroxyethoxy)benzyl)-3,4-dimethyl-2-oxo-N-(2,4,6-trifluorobenzyl)-1,2,3,4-tetrahydroquinazoline-7-carboxamide]: the figures for the half-maximal effective concentration (EC50) (at hSTING(R232); in experiment [1]) were under 1000 nM and 1000 to 10000 nM, respectively.

Regarding `COc1ccc(F)c(CN2C(=O)N(C)[C@@H](C)c3ccc(C(=O)NCc4c(F)cc(F)cc4F)cc32)c1F` [Example 258, (S)-1-(2,6-difluoro-3-methoxybenzyl)-3,4-dimethyl-2-oxo-N-(2,4,6-trifluorobenzyl)-1,2,3,4-tetrahydroquinazoline-7-carboxamide], the EC50 (on hSTING(R232); in experiment [1]) was under 1000 nM throughout.

Take `COc1cc(F)cc(F)c1CN1C(=O)N(C)[C@@H](C)c2ccc(C(=O)NCc3c(F)cc(F)cc3F)cc21` [Example 259, (S)-1-(2,4-difluoro-6-methoxybenzyl)-3,4-dimethyl-2-oxo-N-(2,4,6-trifluorobenzyl)-1,2,3,4-tetrahydroquinazoline-7-carboxamide]: the EC50 (on hSTING(R232); in experiment [1]) was under 1000 nM in each case.

With `C[C@H]1c2ccc(C(=O)NCc3c(F)cc(F)cc3F)cc2N(Cc2c(O)cc(F)cc2F)C(=O)N1C` [Example 260, (S)-1-(2,4-difluoro-6-hydroxybenzyl)-3,4-dimethyl-2-oxo-N-(2,4,6-trifluorobenzyl)-1,2,3,4-tetrahydroquinazoline-7-carboxamide], the concentration giving a half-maximal response (EC50) (at hSTING(R232); in experiment [1]) was under 1000 nM throughout.

Regarding `C[C@H]1c2ccc(C(=O)NCc3c(F)cc(F)cc3F)cc2N(Cc2cc(OCCO)ccc2F)C(=O)N1C` [Example 263, (S)-1-(2-fluoro-5-(2-hydroxyethoxy)benzyl)-3,4-dimethyl-2-oxo-N-(2,4,6-trifluorobenzyl)-1,2,3,4-tetrahydroquinazoline-7-carboxamide], the EC50 at hSTING(R232) was under 1000 nM; in experiment [1], 1000 to 10000 nM.

In the case of `COc1cc(F)c(CN2C(=O)N(C)[C@@H](C)c3ccc(C(=O)NCc4c(F)cc(F)cc4F)cc32)cc1OC` [Example 265, (S)-1-(2-fluoro-4,5-dimethoxybenzyl)-3,4-dimethyl-2-oxo-N-(2,4,6-trifluorobenzyl)-1,2,3,4-tetrahydroquinazoline-7-carboxamide], the EC50 (on hSTING(R232); in experiment [1]) was under 1000 nM in each case.

With `C[C@H]1c2ccc(C(=O)NCc3c(F)cc(F)cc3F)cc2N(Cc2c(F)ccc(CO)c2F)C(=O)N1C` [Example 269, (S)-1-(2,6-difluoro-3-(hydroxymethyl)benzyl)-3,4-dimethyl-2-oxo-N-(2,4,6-trifluorobenzyl)-1,2,3,4-tetrahydroquinazoline-7-carboxamide], the EC50 (on hSTING(R232); in experiment [1]) was under 1000 nM in each case.
